Laboratory results from patent US20230089273A1, “METHODS FOR MATURING AN ARTERIOVENOUS FISTULA” (ALUCENT BIOMEDICAL, INC., priority 2020, published 2023).

How the values were obtained:
[1] = test system: Femoral AVFs in young Wistar male rats; experiment: Rat femoral AVF model, histology and morphometry (VVG); format: in vivo
Protocol: (§1) Femoral AVFs were created in young Wistar male rats by connecting the femoral artery (side) and femoral vein (end) in the same limb. FIGS. 1A-B show the surgical procedure. Immediately after the blood flow was restored and dilatation of the femoral vein occurred, a 10 μl -drop of a composition comprising 2 mg/ml Compound of Formula (I) in PBS was placed at the AVF perivascularly and incubated for 5 minutes, to allow the Compound of Formula (I) to diffuse into the vascular wall. The Compound of Formula (I) was activated by a 1 minute illumination by 450 nm light. A control group of young Wistar male rats received a 10 μl -drop of phosphate buffered saline and the same light activation. The rats' skin was closed immediately after light activation. FIG. 1C is a photograph of the incubation with NVS, applied perivascularly on the anastomosis to allow the compound to diffuse into the vascular tissue. FIG. 1D is a photograph of the small molecule treated area being exposed to 1 minute of illumination with a 450 -nm light source. FIG. 1E depicts fluorescence images after following light activation, 2 animals were sacrificed and their vessels observed on a fluorescence microscope at 450 nm excitation for NVS.
Rats were euthanized 1 week (early time point, 4 per group) and 4 weeks (later time point, 10 per group) post-AVF creation for histology and morphometry. Verhoeff-Van Gieson (VVG)-stained thin cross-sections were used to measure the area enclosed by internal elastic lamina (IEL), the area of open lumen, and the area of neointimal hyperplasia (NH) by Image J software. Percent open lumen area=open lumen area/IEL-enclosed area×100%. These analyses were done at three locations: the entire AVF, the AVF venous limb, and the AVF arterial limb.
An unpaired, two-tailed t-test was used to determine the statistical significance between the two treatment groups (no-NVS (i.e., control) vs. NVS (treatment with Compound of Formula (I))) in each of the data sets, with α=0.05.

MMP-2 = experiment: Immunohistochemistry of the AVF: MMP-2; format: in vivo, rat; conditions: 4 weeks
From the text: (§2) Based on the results from the morphometric analysis in Example 1, the expression level of several molecular targets associated with AVF maturation failure (i.e., MMP2-MMP-9, Ki-67, and IL6) in the AVF vessels at the 4-week time point were selected for further investigation.
(§3) But excessive fibrosis of the vessel walls due to local inflammation as well as the circumferential arrangement of newly synthesized collagen fibers has shown a positive association with AVF non-maturation (possibly due to decreasing the distensibility of the veins as they go through the arterialization process). MMP-9 is an inflammatory marker, and although MM-2 is usually not considered an inflammatory marker, both metalloproteinases have nearly identical ECM substrates and are important in vascular remodeling. […] Ki-67 is a marker of cell proliferation, which allows assessing the proliferation of vascular wall cells during the AVF development process.

MMP-9 = experiment: Immunohistochemistry of the AVF: MMP-9; format: in vivo, rat; conditions: 4 weeks
From the text: as §2, §3

IL-6 = experiment: Immunohistochemistry of the AVF: IL-6; format: in vivo, rat; conditions: 4 weeks
From the text: as §2, §3

Ki-67 = experiment: Immunohistochemistry of the AVF: Ki-67; format: in vivo, rat; conditions: entire AVF, 4 weeks
From the text: as §2, §3

HUVECs = experiment: Cell death (apoptosis) assay, R&D system kit, HUVEC; format: cell-based; conditions: 0.25, 2.5, 25 μg/ml, 5 min, 450 nm light 1 min, D0-D3, FIG. 12A
Protocol: (§4) Cell death assays used the cell death detection R&D system kit to detect cell death via apoptosis. Cell density was 1×10^5 per well in a 96-well plate for R&D system kit. HUVECs and HASMCs were treated with NVS in different concentrations (0, 0.25, 2.5, and 25 μg/ml) in serum free medium for 5 minutes in the incubator. After removing NVS, cells were washed with serum free medium once, and the plate was refilled with 200 μl serum free medium in each well. Cells were treated using 450 nm light for 1 minute at room temperature, and then serum free medium was removed and each well was refilled with 200 μl of medium supplemented with 10% serum. At 0, 1, 2, and 3 days post-treatment (D0, D1, D2, and D3), cell death assay was performed according to the manufacturer's protocol. Positive controls were cells incubated with hypertonic buffer (10 mM Tris PH 7.4, 400 mM NaCl, 10 mM MgCl2) at 37° C. for 2 hours.

HASMCs = experiment: Cell death (apoptosis) assay, R&D system kit, HASMC; format: cell-based; conditions: 0.25, 2.5, 25 μg/ml, 5 min, 450 nm light 1 min, D0-D3, FIG. 12B
Protocol: as §4

[2] = test system: collagen fibers in AVF medial layer; experiment: Multiphoton / SHG imaging of collagen fibers in AVF; format: in vivo, rat
Protocol: Second harmonic generation (SHG) imaging was performed on 5 μm thick formalin-fixed paraffin embedded (FFPE) sections using Leica SP8 Dive with spectral tunable detection. Collagen fiber orientation in the medial layer was analyzed in relationship to the lumen. Each sample was divided into 4 quadrants and the medial layer was examined in each quadrant; the area of examination for each quadrant was 25 μm^2. The same images were used for other collagen morphology using the MIPAR image software analysis.

[3] = test system: native blood vessels, anastomosis area; experiment: Fluorescence imaging of vessels after NVS and laser treatment; format: in vivo, rat; conditions: vessels harvested immediately after NVS and laser treatment, FIG. 1E
Protocol: as §1, with “FIGS. 1C-E show photographs of the surgical procedure described in Example 1. (C) AVF surgery area was incubated with NVS solution for 5 min; (D) NVS was activated by laser at 450 nm for 1 min; (E) Fluorescent images of native blood vessels that are harvested immediately after the NVS and laser treatment. […] Femoral” for “Femoral”, “FIG. 1D is a photograph of the small molecule treated area being exposed to 1 minute of illumination with a 450 -nm light source.” left out

[4] = week 4, trend, not statistically different

NCCOCCOCCNc1ccc2c3c(cccc13)C(=O)N(CCOCCOCCN1C(=O)c3cccc4c(NCCOCCOCCN)ccc(c34)C1=O)C2=O [NVS, 2,2′-((ethane-1,2-diylbis(oxy))bis(ethane-2,1-diyl))bis(6-((2-(2-(2-aminoethoxy)ethoxy)ethyl)amino)-1H-benzo[de]isoquinoline-1,3(2H)-dione)]
AVF venous limb % open lumen area, fold larger than control ([1]; 4 weeks, p=0.009, FIG. 6): 1.98 fold | AVF venous limb open lumen area, fold larger than control ([1]; 4 weeks, p=0.014, FIG. 6): 4.18 fold | entire AVF % open lumen area, fold larger than control ([1]; 4 weeks, p=0.052, FIG. 5): 1.49 fold | entire AVF open lumen area, fold larger than control ([1]; 4 weeks, p=0.062, FIG. 5): 2.25 fold | tolerability of treatment ([1]; 10 μl drop of 2 mg/ml in PBS perivascular, 5 min, 450 nm light 1 min): tolerated the treatment well | venous diameter vs PBS control ([1]; by 4 weeks after AVF creation surgery): enlarged venous diameter | all four morphometric parameters (IEL-enclosed area, neointimal lesion area, open lumen area, % area of open lumen) vs PBS ([1]; entire AVF, 1 week): similar | NH (neointimal hyperplasia) area vs control ([1]; regardless of the locations): without significantly affecting | AVF open lumen area, effect of treatment ([1]; summary statement): significantly increased | MMP-2 expression level vs PBS group (MMP-2; arterial limb): trending lower | MMP-2 expression level vs PBS group (MMP-2; entire AVF): trending lower | MMP-2 area stained positive, fold lower than PBS group (MMP-2; venous limb, p=0.015, FIG. 8C): 1.8 fold | MMP-9 % area stained positive, fold lower than PBS group (MMP-9; arterial limb, p=0.036, FIG. 9D): 2.4 fold | MMP-9 expression level vs PBS group (MMP-9; entire AVF): trending lower | MMP-9 % area stained positive, fold lower than PBS group (MMP-9; venous limb, p=0.019, FIG. 9D): 1.8 fold | IL-6 mean gray value, fold lower than PBS group (IL-6; arterial limb, p=0.015, FIG. 10C): 1.6 fold | IL-6 mean gray value, fold lower than PBS group (IL-6; entire AVF, p=0.027, FIG. 10C): 1.4 fold | IL-6 expression level vs PBS group (IL-6; venous limb): trending lower | Ki-67 expression level vs PBS group (Ki-67): similar | cell death via apoptosis (HUVECs): minimal cell death | cell death via apoptosis (HASMCs): minimal cell death | analyzed regions exhibiting favorable collagen orientation for AVF maturation ([2]; AVFs at week 4, not statistically significant vs PBS (25%)): 58% | collagen shape features (roundness, roughness, eccentricity) vs PBS treated samples [2, 4]: more defined shape features | overall collagen area vs PBS treated samples [2, 4]: less overall collagen area | penetration into vascular tissue (green fluorescence) [3]: penetration throughout the anastomosis area
